{
  "source": "ChEMBL document CHEMBL5625227",
  "about": "“Discovery and optimization of 2,3-diaryl-1,3-thiazolidin-4-one-based derivatives as potent and selective cytotoxic agents with anti-inflammatory activity” (Eur J Med Chem, 2023)",
  "key": {"MCF7": {"tested_on": "MCF7", "test": "Cytotoxicity against human MCF7 cells assessed as inhibition in cell growth incubated for 72 hrs by MTT assay", "format": "functional, cell-based", "conditions": "MCF7, 72 h"}, "HT-29 [1]": {"tested_on": "HT-29", "test": "Cytotoxicity against human HT-29 cells assessed as inhibition in cell growth incubated for 72 hrs by MTT assay", "format": "functional, cell-based", "conditions": "HT-29, 72 h"}, "A2780": {"tested_on": "A2780", "test": "Cytotoxicity against human A2780 cells assessed as inhibition in cell growth incubated for 72 hrs by MTT assay", "format": "functional, cell-based", "conditions": "A2780, 72 h"}, "[2]": {"test": "Cytotoxicity against human MRC5 cells assessed as inhibition in cell growth incubated for 72 hrs by MTT assay", "format": "toxicity, cell-based"}, "[3]": {"test": "Selectivity index, ratio of IC50 for cytotoxicity against human MRC5 cells to IC50 for cytotoxicity against human MCF7 cells", "conditions": "MRC5 cells versus MCF7 cells"}, "[4]": {"test": "Selectivity index, ratio of IC50 for cytotoxicity against human MRC5 cells to IC50 for cytotoxicity against human HT-29 cells", "conditions": "MRC5 cells versus HT-29 cells"}, "[5]": {"test": "Selectivity index, ratio of IC50 for cytotoxicity against human MRC5 cells to IC50 for cytotoxicity against human A2780 cells", "conditions": "MRC5 cells versus A2780 cells"}, "HT-29 [6]": {"tested_on": "HT-29", "test": "Anticlonogenic activity against human HT-29 cells assessed as reduction in number of colonies at 0.025 uM incubated for 24 hrs by clonogenic survival assay", "format": "functional, cell-based"}, "Ehrlich [7]": {"tested_on": "Ehrlich", "test": "Antitumor activity against mouse Ehrlich solid carcinoma cells bearing adult male swiss albino mouse assessed as decrease in tumor volume at 50 mg/kg, po administered every other day and observed at 9 days", "format": "functional, organism-based", "conditions": "time 9.0 day"}, "Ehrlich [8]": {"tested_on": "Ehrlich", "test": "Antitumor activity against mouse Ehrlich solid carcinoma cells bearing adult male swiss albino mouse assessed as decrease in tumor volume at 50 mg/kg, po administered every other day and observed at 13 days", "format": "functional, organism-based", "conditions": "time 13.0 day"}, "Ehrlich [9]": {"tested_on": "Ehrlich", "test": "Antitumor activity against mouse Ehrlich solid carcinoma cells bearing adult male swiss albino mouse assessed as decrease in tumor volume at 50 mg/kg, po administered every other day and observed at 5 days", "format": "functional, organism-based", "conditions": "time 5.0 day"}, "Ehrlich [10]": {"tested_on": "Ehrlich", "test": "Antitumor activity against mouse Ehrlich solid carcinoma cells bearing adult male swiss albino mouse assessed as tumor growth inhibition at 50 mg/kg, po administered every other day and observed at 13 days relative to control", "format": "functional", "conditions": "312 h, time 13 day, read-out: TGI"}, "Ehrlich [11]": {"tested_on": "Ehrlich", "test": "Antitumor activity against mouse Ehrlich solid carcinoma cells bearing adult male swiss albino mouse assessed as decrease in tumor weight at 50 mg/kg, po administered every other day and observed at 14 days", "format": "functional, organism-based", "conditions": "time 14.0 day"}, "HT-29 [12]": {"tested_on": "HT-29", "test": "Anti-migration activity in human HT-29 cells assessed as suppression in cell migration at 0.025 uM incubated 48 hrs by wound-healing assay", "format": "functional, cell-based"}, "HT-29 [13]": {"tested_on": "HT-29", "test": "Induction of apoptosis in human HT-29 cells assessed as accumulation of cells at viable stage at 0.025 uM incubated for 24 hrs by Annexin V-FITC/propidium iodide staining based flow cytometry analysis (reference value: 91.7%)", "format": "functional"}, "HT-29 [14]": {"tested_on": "HT-29", "test": "Induction of apoptosis in human HT-29 cells assessed as accumulation of cells at early apoptotic stage at 0.025 uM incubated for 24 hrs by Annexin V-FITC/propidium iodide staining based flow cytometry analysis (reference value: 0.1%)", "format": "functional"}, "HT-29 [15]": {"tested_on": "HT-29", "test": "Induction of apoptosis in human HT-29 cells assessed as accumulation of cells at late apoptotic stage at 0.025 uM incubated for 24 hrs by Annexin V-FITC/propidium iodide staining based flow cytometry analysis (reference value: 0.2%)", "format": "functional"}, "HT-29 [16]": {"tested_on": "HT-29", "test": "Induction of apoptosis in human HT-29 cells assessed as accumulation of cells at necrotic stage at 0.025 uM incubated for 24 hrs by Annexin V-FITC/propidium iodide staining based flow cytometry analysis (reference value: 8.1%)", "format": "functional"}, "Sus scrofa": {"species_on_record": "Sus scrofa", "test": "Inhibition of porcine brain tubulin polymerization at 1 uM by fluorescence-based tubulin polymerization assay"}, "[17]": {"molecular_target": "T1, Prostaglandin G/H synthase 1 (Ovis aries, UniProt P05979)", "T1 sequence (P05979 whole entry)": "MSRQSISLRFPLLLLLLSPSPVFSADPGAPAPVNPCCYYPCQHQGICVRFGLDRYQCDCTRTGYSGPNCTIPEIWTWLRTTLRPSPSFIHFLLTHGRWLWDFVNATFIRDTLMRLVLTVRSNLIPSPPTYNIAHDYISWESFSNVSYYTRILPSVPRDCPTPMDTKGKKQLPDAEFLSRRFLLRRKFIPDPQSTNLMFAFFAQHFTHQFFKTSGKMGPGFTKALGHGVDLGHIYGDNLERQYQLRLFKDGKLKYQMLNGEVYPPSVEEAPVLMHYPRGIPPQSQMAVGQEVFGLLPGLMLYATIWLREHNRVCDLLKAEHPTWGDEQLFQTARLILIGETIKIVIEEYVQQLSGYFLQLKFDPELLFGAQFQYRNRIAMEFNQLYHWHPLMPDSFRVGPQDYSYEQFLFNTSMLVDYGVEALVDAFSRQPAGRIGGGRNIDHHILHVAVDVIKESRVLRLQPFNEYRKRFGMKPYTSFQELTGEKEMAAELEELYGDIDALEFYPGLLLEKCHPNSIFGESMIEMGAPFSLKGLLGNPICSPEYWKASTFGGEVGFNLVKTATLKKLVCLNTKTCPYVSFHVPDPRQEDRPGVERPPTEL", "test": "Inhibition of ovine COX-1"}, "Rattus norvegicus [18]": {"tested_on": "Rattus norvegicus", "test": "Antiinflammatory activity against carrageenan-induced paw edema Sprague-Dawley rat model assessed as inhibition of paw edema by measuring edema thickness at 50 mg/kg, po measured after 1 hr (reference value: 0.71 +/- 0.03 mm)", "format": "functional"}, "Rattus norvegicus [19]": {"tested_on": "Rattus norvegicus", "test": "Antiinflammatory activity against carrageenan-induced paw edema Sprague-Dawley rat model assessed as inhibition of paw edema by measuring edema thickness at 50 mg/kg, po measured after 3 hrs (reference value: 1.41 +/- 0.13 mm)", "format": "functional"}, "Rattus norvegicus [20]": {"tested_on": "Rattus norvegicus", "test": "Antiinflammatory activity against carrageenan-induced paw edema Sprague-Dawley rat model assessed as inhibition of paw edema by measuring edema thickness at 50 mg/kg, po measured after 5 hrs (reference value: 1.39 +/- 0.11 mm)", "format": "functional"}, "Rattus norvegicus [21]": {"tested_on": "Rattus norvegicus", "test": "Antiinflammatory activity against carrageenan-induced paw edema Sprague-Dawley rat model assessed as inhibition of inflammation at 50 mg/kg, po after 1 hr relative to control", "format": "functional", "design": "scale not given: the % may be the effect or the level left"}, "Rattus norvegicus [22]": {"tested_on": "Rattus norvegicus", "test": "Antiinflammatory activity against carrageenan-induced paw edema Sprague-Dawley rat model assessed as inhibition of inflammation at 50 mg/kg, po after 3 hrs relative to control", "format": "functional", "design": "scale not given: the % may be the effect or the level left"}, "Rattus norvegicus [23]": {"tested_on": "Rattus norvegicus", "test": "Antiinflammatory activity against carrageenan-induced paw edema Sprague-Dawley rat model assessed as inhibition of inflammation at 50 mg/kg, po after 5 hrs relative to control", "format": "functional", "design": "scale not given: the % may be the effect or the level left"}, "[24]": {"test": "Acute ulcerogenic activity in Sprague-Dawley male rat assessed as incidence of ulcer/10 animal at 50 mg/kg/day, po administered for 3 days", "format": "toxicity, organism-based", "conditions": "in vivo, 72 h, time 3 day"}, "[25]": {"test": "Acute ulcerogenic activity in Sprague-Dawley male rat assessed as average number of ulcers at 50 mg/kg/day, po administered for 3 days", "format": "toxicity, organism-based", "conditions": "in vivo, 72 h, time 3 day"}, "[26]": {"test": "Acute ulcerogenic activity in Sprague-Dawley male rat assessed as average severity of ulcers at 50 mg/kg/day, po administered for 3 days", "format": "toxicity, organism-based", "conditions": "in vivo, 72 h, time 3 day"}, "[27]": {"test": "Acute ulcerogenic activity in Sprague-Dawley male rat assessed as ulcer index at 50 mg/kg/day, po administered for 3 days", "format": "toxicity, organism-based", "conditions": "in vivo, 72 h, time 3 day"}, "[28]": {"test": "Acute ulcerogenic activity in Sprague-Dawley male rat assessed as change in normal gastric mucosa with mild congestion of the blood vessels in the submucosa at 50 mg/kg/day, po administered for 3 days by hematoxylin and eosin staining method", "format": "toxicity, organism-based, Stomach", "conditions": "in vivo, 72 h, time 3 day"}},
  "note": "Calls of active or inactive are those of the source. No cut-off for these calls is given here.",
  "data": [
    {"smiles": "Cc1ccc(C2SCC(=O)N2c2ccc(OCC(=O)Nc3ccc(Cl)cc3)cc2)cc1", "note": "(stereo unspecified)", "values": [
      {"measurement": "IC50", "setting": "MCF7", "value": 110, "unit": "nM"},
      {"measurement": "IC50", "setting": "HT-29 [1]", "value": 20, "unit": "nM"},
      {"measurement": "IC50", "setting": "A2780", "value": 180, "unit": "nM"},
      {"measurement": "IC50 at 72 h", "setting": "[2]", "value": 470, "unit": "nM"},
      {"measurement": "selectivity ratio at 72 h", "setting": "[3]", "value": 4.27},
      {"measurement": "selectivity ratio at 72 h", "setting": "[4]", "value": 23.5},
      {"measurement": "selectivity ratio at 72 h", "setting": "[5]", "value": 2.61},
      {"measurement": "Activity", "setting": "HT-29 [6]", "value": "Active"},
      {"measurement": "Activity", "setting": "Ehrlich [7]", "value": "Active"},
      {"measurement": "Activity", "setting": "Ehrlich [8]", "value": "Active"},
      {"measurement": "Activity", "setting": "Ehrlich [9]", "value": "Active"},
      {"measurement": "inhibition in vivo at 50 mg/kg", "setting": "Ehrlich [10]", "value": 51.6, "unit": "%"},
      {"measurement": "Activity", "setting": "Ehrlich [11]", "value": "Active"},
      {"measurement": "Activity", "setting": "HT-29 [12]", "value": "Active"},
      {"measurement": "Activity", "setting": "HT-29 [13]", "value": 41.1, "unit": "%"},
      {"measurement": "Activity", "setting": "HT-29 [14]", "value": 19.2, "unit": "%"},
      {"measurement": "Activity", "setting": "HT-29 [15]", "value": 15.6, "unit": "%"},
      {"measurement": "Activity", "setting": "HT-29 [16]", "value": 24.1, "unit": "%"},
      {"measurement": "inhibition", "setting": "Sus scrofa", "value": "Active"},
      {"measurement": "IC50", "setting": "[17]", "value": 13400, "unit": "nM"},
      {"measurement": "Activity", "setting": "Rattus norvegicus [18]", "value": 0.52, "unit": "mm"},
      {"measurement": "Activity", "setting": "Rattus norvegicus [19]", "value": 0.49, "unit": "mm"},
      {"measurement": "Activity", "setting": "Rattus norvegicus [20]", "value": 0.73, "unit": "mm"},
      {"measurement": "Activity", "setting": "Rattus norvegicus [21]", "value": 15.3, "unit": "%"},
      {"measurement": "Activity", "setting": "Rattus norvegicus [22]", "value": 32.7, "unit": "%"},
      {"measurement": "Activity", "setting": "Rattus norvegicus [23]", "value": 47.48, "unit": "%"},
      {"measurement": "Activity", "setting": "[24]", "value": 10, "unit": "%"},
      {"measurement": "Activity", "setting": "[25]", "value": 3.33},
      {"measurement": "Activity", "setting": "[26]", "value": 2},
      {"measurement": "UI", "setting": "[27]", "value": 15.33},
      {"measurement": "Activity", "setting": "[28]", "value": "Non-Toxic"}
    ]}
  ]
}
